Assay results reported in ChEMBL document CHEMBL1201862, “PubChem BioAssay data set” (2004).
The source made the active and inactive calls.

Key:
Assay type in all cases: functional
[1] = molecular target: Serine/threonine-protein kinase pim-1 (Homo sapiens, UniProt P11309)
[2] = molecular target: Cell division cycle 7-related protein kinase (Homo sapiens, UniProt O00311);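 also: value obtained from a kinome-wide kinase panel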
[3] = molecular target: Homeodomain-interacting protein kinase 2 (Homo sapiens, UniProt Q9H2X6);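 also: measured within a kinome-wide kinase profiling panel, HIPK2 being one panel member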
Chain of Homeodomain-interacting protein kinase 2 (Q9H2X6 whole entry): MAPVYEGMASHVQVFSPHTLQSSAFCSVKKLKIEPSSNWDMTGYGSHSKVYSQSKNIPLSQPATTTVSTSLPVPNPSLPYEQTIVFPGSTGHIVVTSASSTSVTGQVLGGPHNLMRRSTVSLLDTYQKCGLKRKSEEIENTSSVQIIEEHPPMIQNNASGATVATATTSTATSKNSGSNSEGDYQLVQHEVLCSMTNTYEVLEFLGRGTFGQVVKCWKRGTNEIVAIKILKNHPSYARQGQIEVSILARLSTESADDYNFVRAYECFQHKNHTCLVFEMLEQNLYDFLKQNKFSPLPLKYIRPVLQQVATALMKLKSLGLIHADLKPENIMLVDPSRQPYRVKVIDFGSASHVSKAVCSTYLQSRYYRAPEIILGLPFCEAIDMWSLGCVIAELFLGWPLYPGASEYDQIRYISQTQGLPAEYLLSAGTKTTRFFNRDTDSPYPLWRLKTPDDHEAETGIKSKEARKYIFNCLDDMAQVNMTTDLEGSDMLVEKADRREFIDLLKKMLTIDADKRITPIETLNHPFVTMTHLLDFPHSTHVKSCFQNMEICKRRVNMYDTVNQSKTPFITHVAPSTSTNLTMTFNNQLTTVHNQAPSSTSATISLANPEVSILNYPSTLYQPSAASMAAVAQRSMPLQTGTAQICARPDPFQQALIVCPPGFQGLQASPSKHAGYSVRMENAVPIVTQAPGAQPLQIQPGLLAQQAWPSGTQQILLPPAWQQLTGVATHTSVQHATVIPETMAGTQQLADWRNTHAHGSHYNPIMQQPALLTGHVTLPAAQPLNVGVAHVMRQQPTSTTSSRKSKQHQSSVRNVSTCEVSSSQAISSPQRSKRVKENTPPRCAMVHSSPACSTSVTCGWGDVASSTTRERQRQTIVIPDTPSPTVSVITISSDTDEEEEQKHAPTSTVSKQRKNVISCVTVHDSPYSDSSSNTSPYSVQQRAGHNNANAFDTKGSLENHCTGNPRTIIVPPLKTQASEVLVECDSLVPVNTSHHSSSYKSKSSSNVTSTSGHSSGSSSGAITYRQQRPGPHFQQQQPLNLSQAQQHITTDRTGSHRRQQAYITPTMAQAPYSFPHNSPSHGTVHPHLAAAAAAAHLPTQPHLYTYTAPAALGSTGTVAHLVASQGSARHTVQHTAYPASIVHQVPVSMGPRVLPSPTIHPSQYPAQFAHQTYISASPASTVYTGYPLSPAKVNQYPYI

[4] = molecular target: MAP kinase-interacting serine/threonine-protein kinase 2 (Homo sapiens, UniProt Q9HBH9)
Chain of MAP kinase-interacting serine/threonine-protein kinase 2 (Q9HBH9 whole entry): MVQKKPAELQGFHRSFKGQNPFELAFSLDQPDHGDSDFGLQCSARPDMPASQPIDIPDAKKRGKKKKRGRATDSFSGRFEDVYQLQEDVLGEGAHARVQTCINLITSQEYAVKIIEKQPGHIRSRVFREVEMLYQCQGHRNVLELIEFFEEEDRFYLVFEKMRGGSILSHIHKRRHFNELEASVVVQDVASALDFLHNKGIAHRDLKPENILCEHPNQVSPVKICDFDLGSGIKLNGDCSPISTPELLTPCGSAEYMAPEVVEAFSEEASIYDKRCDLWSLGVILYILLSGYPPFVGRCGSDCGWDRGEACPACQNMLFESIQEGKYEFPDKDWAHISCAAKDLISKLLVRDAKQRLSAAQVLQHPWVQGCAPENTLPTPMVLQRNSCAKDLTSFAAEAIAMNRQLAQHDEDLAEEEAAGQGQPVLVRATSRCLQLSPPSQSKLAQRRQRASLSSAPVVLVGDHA

[5] = molecular target: T1, Interleukin-1 receptor-associated kinase 4 (Homo sapiens, UniProt Q9NWZ3)
T1 sequence (Q9NWZ3 whole entry): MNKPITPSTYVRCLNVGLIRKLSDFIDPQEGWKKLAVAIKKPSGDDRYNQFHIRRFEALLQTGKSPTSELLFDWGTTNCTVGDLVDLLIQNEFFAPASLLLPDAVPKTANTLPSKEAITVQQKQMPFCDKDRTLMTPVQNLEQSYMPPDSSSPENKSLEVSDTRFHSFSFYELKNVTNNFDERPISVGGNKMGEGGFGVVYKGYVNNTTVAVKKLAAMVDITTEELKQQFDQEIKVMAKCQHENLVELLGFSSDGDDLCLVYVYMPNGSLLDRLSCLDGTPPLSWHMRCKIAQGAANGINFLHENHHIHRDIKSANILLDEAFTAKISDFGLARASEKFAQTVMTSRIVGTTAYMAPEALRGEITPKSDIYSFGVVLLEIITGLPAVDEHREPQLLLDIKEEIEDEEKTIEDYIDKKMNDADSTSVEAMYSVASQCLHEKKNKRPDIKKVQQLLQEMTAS

[6] = molecular target: Glycogen synthase kinase-3 beta (Homo sapiens, UniProt P49841);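 also: value comes from a broad kinome profiling panel, with GSK3B as the panel member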
[7] = molecular target: cAMP-dependent protein kinase catalytic subunit alpha (Homo sapiens, UniProt P17612)
[8] = molecular target: Mitogen-activated protein kinase kinase kinase kinase 4 (Homo sapiens, UniProt O95819)
Chain of Mitogen-activated protein kinase kinase kinase kinase 4 (O95819 whole entry): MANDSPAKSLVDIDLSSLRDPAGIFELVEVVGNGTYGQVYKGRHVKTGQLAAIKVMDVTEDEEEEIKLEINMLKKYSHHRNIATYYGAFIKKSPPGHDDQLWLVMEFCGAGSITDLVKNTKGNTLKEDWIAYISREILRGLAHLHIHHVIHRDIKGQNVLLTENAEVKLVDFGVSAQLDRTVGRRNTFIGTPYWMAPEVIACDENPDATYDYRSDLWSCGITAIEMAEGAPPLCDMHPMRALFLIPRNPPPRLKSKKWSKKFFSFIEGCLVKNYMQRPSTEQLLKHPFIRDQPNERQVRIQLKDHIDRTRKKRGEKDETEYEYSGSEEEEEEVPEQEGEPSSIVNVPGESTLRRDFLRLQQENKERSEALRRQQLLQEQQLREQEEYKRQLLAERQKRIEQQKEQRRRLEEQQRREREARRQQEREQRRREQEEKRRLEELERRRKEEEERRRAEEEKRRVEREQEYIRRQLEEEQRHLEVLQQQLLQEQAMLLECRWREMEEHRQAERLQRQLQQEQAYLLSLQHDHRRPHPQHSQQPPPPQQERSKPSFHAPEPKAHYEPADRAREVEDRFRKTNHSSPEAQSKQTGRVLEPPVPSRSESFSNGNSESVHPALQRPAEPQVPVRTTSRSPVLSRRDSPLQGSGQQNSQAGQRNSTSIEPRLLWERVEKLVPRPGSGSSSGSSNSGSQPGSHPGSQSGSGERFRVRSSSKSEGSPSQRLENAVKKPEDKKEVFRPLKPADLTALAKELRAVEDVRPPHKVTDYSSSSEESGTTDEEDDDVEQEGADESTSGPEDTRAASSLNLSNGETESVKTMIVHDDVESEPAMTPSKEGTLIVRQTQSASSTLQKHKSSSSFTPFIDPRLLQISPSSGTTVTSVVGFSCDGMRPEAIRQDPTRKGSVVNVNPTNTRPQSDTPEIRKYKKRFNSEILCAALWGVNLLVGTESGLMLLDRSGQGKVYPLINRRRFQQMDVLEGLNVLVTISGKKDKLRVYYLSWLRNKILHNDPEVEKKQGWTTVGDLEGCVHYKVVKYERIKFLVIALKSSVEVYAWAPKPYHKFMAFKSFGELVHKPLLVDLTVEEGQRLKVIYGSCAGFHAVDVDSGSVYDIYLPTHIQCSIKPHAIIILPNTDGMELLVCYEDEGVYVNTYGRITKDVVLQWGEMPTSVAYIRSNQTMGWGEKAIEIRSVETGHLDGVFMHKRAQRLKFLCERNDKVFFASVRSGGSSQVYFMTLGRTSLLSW

Phospholipase D1 = molecular target: T2, Phospholipase D1 (Homo sapiens, UniProt Q13393); experiment: cellular phospholipase D1 inhibition IC50 – cell-based, dose response (AID 602151);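 also: cellular PLD1 assay in Calu-1 cells stimulated with PMA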
T2 sequence (Q13393 whole entry): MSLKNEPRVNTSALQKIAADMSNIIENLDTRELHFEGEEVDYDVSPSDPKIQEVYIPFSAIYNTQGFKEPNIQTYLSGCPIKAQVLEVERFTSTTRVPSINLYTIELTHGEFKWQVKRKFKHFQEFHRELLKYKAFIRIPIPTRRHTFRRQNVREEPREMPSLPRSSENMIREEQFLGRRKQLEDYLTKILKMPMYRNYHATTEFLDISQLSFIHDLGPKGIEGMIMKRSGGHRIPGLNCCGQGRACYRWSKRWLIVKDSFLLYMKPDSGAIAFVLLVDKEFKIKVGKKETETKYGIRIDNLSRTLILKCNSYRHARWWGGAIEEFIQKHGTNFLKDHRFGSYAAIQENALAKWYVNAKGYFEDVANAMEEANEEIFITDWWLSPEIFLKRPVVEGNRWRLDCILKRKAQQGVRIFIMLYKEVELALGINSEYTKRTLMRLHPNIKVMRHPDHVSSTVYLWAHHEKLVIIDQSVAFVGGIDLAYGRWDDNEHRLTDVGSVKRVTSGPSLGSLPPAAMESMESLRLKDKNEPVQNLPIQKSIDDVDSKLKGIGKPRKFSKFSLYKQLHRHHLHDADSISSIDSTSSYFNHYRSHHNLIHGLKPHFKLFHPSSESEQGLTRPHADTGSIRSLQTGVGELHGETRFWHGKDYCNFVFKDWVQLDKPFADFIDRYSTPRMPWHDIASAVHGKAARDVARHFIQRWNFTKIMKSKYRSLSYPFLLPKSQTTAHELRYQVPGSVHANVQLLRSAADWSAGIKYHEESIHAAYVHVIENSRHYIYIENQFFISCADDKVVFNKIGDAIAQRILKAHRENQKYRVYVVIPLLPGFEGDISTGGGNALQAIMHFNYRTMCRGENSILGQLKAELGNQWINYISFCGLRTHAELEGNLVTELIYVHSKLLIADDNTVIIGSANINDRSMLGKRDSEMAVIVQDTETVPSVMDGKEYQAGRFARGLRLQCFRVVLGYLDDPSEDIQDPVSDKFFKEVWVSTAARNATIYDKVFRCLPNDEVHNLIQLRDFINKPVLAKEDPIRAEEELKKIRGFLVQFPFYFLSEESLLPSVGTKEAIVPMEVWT

Phospholipase D2 = Phospholipase D2 (Homo sapiens, UniProt O14939); experiment: cellular phospholipase D2 inhibition IC50 – cell-based, dose response (AID 602147);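 also: cellular assay in HEK293 cells overexpressing GFP-tagged PLD2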
Chain of Phospholipase D2 (O14939 whole entry): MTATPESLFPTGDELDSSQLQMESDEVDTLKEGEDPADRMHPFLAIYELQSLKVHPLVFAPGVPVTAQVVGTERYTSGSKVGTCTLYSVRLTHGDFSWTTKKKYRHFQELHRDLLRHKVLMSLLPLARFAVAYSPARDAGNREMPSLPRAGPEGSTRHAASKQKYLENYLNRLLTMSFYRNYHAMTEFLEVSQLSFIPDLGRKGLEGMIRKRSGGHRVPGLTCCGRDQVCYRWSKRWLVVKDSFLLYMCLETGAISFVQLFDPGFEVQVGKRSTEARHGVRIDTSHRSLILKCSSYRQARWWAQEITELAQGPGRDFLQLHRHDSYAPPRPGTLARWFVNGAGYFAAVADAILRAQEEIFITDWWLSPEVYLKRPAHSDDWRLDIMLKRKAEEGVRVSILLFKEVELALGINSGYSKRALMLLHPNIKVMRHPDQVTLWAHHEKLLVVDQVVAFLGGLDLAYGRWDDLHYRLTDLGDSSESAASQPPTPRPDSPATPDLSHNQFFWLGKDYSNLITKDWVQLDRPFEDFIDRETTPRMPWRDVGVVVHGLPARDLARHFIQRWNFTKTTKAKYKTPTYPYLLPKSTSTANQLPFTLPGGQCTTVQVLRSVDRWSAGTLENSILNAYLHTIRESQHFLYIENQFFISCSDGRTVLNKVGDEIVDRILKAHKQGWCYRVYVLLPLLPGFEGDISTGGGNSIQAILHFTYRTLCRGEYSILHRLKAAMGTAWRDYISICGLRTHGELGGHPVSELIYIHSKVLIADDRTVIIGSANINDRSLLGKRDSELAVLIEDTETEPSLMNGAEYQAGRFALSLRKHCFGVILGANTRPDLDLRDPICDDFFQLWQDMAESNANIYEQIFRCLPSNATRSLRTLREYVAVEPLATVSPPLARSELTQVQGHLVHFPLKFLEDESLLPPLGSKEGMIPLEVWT

[9] = Luminescence Cell-Based Dose Response HTS to Identify Activators of Luciferase Translation or Activity in H4 […] Cells. [Related pubchem assays: 1829 (Project Summary), 1814 (Primary HTS)]
H4 = experiment: Luminescence Cell-Based Dose Response HTS to Identify Activators of 5'UTR Stem-Loop Driven Prion Protein mRNA Translation in H4 Neuroglioblastoma Cells. [Related pubchem assays: 1829 (Project Summary), 1814 (Primary HTS)]; details: Homo sapiens
Caspase-3 = molecular target: T3, Caspase-3 (Homo sapiens, UniProt P42574);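 also: Dose-response selectivity test against caspase-3 for candidate inhibitors of sentrin-specific proteases (SENPs)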
T3 sequence (P42574 whole entry): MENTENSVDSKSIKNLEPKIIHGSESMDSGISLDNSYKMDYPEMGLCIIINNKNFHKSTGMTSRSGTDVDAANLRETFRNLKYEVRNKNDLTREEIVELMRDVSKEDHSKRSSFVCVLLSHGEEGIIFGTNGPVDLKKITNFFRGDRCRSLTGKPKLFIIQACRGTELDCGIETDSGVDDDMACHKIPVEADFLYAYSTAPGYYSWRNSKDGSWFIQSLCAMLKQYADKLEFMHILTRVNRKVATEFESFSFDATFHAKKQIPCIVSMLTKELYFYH

[10] = molecular target: T4, Sentrin-specific protease 7 (Homo sapiens, UniProt Q9BQF6);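 also: Luminescence-based dose-response confirmation of ultra-high-throughput screening hits, measuring inhibition of SENP7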
T4 sequence (Q9BQF6 whole entry): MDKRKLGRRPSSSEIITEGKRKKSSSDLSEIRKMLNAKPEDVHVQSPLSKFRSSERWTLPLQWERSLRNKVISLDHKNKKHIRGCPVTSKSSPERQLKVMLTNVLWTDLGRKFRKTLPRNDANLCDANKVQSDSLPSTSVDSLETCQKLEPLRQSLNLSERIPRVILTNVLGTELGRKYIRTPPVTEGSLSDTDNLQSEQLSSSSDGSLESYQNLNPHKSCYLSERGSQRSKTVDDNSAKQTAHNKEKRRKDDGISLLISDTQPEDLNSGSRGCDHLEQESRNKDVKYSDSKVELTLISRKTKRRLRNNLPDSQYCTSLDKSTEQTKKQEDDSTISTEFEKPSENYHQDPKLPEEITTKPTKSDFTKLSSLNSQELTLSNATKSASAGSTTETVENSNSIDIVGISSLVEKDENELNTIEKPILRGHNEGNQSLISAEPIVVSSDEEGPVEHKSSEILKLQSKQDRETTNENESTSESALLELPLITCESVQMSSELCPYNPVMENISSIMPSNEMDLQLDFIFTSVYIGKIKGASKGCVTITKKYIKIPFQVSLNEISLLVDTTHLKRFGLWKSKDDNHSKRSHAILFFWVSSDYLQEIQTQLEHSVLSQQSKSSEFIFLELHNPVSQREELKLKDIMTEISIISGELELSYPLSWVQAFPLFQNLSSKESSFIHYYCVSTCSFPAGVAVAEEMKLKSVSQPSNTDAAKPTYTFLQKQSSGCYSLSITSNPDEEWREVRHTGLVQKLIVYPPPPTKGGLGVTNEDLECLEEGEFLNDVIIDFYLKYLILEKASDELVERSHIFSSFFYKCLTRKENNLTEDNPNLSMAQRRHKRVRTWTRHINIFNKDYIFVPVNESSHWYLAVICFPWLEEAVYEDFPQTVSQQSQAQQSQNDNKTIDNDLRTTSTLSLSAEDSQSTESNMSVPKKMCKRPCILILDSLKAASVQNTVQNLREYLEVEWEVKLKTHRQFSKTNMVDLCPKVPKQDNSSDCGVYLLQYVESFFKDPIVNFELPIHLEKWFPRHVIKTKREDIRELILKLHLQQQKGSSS

[11] = molecular target: T5, Sentrin-specific protease 6 (Homo sapiens, UniProt Q9GZR1);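 also: Luminescence-based dose-response confirmatory assay of SENP6 inhibition, following up an ultra-high-throughput screen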
T5 sequence (Q9GZR1 whole entry): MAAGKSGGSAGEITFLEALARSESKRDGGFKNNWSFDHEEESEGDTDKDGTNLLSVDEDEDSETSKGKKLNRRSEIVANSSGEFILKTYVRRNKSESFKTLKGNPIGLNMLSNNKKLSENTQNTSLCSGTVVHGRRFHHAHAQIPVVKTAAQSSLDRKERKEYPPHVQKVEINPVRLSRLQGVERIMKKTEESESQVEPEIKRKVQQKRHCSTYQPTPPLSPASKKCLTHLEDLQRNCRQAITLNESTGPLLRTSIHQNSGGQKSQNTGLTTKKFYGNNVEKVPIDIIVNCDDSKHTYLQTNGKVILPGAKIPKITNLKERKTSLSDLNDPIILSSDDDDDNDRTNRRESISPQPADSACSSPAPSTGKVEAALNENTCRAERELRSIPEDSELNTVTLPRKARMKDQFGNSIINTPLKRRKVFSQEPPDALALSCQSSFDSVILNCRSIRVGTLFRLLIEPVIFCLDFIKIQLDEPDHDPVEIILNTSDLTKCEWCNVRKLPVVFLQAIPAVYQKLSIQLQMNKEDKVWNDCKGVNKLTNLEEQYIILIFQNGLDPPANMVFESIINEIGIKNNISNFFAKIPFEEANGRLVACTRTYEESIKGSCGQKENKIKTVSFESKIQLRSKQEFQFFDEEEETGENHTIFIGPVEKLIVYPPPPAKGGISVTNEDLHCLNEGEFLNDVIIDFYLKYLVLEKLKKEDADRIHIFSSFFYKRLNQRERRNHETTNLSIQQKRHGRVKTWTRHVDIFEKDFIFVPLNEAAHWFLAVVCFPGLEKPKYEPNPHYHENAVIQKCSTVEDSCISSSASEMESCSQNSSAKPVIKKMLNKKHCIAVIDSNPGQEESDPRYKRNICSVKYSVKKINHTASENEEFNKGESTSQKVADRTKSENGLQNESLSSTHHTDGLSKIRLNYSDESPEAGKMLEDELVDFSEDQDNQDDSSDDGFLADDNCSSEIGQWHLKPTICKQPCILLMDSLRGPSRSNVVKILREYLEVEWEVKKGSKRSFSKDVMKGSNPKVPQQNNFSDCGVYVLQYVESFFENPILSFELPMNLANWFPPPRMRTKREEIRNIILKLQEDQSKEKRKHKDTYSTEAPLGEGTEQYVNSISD

[12] = molecular target: T6, Sentrin-specific protease 8 (Homo sapiens, UniProt Q96LD8);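 also: luminescence read-out of SENP8 inhibition, dose-response confirmation following an ultra-high-throughput screen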
T6 sequence (Q96LD8 whole entry): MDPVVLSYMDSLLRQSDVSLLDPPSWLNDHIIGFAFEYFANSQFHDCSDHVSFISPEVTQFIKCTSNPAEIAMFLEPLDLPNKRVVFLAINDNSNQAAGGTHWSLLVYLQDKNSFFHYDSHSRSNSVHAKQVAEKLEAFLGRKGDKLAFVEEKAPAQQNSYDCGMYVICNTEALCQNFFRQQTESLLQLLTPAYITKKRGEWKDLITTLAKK

Aurora kinase A = molecular target: T7, Aurora kinase A (Homo sapiens, UniProt O14965);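 also: value from the Navigating the Kinome kinase panel profiling, panel entry STK6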
T7 sequence (O14965 whole entry): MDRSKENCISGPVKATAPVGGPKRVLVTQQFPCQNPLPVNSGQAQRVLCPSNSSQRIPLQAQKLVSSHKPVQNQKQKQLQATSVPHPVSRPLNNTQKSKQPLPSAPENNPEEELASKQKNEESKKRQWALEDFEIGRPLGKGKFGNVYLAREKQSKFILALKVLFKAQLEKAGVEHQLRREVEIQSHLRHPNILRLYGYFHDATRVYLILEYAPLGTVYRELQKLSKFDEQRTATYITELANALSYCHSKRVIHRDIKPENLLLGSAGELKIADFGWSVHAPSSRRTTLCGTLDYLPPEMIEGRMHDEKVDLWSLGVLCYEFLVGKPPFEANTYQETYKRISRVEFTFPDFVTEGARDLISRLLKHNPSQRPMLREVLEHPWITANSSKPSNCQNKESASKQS

[13] = molecular target: Vascular endothelial growth factor receptor 2 (Homo sapiens, UniProt P35968)
Aurora kinase B = Aurora kinase B (Homo sapiens, UniProt Q96GD4)
Chain of Aurora kinase B (Q96GD4 whole entry): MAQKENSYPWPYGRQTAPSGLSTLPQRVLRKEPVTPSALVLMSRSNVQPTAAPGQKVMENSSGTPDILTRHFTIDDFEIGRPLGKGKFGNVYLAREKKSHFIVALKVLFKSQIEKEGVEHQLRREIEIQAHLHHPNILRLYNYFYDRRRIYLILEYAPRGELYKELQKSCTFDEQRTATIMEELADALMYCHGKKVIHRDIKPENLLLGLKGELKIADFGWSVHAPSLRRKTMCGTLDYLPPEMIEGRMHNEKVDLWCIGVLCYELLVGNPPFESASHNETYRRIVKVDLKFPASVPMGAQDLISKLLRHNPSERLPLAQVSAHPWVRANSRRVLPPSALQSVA

Chain of Cell division cycle 7-related protein kinase (O00311 whole entry): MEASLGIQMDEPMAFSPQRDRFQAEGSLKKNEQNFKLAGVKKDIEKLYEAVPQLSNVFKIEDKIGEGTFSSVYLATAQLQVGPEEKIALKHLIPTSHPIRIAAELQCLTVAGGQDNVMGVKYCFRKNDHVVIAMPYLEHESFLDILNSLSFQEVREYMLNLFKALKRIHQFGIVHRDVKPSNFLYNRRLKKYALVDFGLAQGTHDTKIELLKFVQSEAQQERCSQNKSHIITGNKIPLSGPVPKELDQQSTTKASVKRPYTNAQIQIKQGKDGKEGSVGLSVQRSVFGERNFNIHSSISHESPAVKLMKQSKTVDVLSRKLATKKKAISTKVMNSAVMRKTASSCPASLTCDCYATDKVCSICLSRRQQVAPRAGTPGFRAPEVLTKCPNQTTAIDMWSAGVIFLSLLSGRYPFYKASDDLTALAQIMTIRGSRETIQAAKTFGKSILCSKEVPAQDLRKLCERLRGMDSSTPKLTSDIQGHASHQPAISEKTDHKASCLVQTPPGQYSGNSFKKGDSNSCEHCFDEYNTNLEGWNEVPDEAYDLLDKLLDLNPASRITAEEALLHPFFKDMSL
Chain of Serine/threonine-protein kinase pim-1 (P11309 whole entry): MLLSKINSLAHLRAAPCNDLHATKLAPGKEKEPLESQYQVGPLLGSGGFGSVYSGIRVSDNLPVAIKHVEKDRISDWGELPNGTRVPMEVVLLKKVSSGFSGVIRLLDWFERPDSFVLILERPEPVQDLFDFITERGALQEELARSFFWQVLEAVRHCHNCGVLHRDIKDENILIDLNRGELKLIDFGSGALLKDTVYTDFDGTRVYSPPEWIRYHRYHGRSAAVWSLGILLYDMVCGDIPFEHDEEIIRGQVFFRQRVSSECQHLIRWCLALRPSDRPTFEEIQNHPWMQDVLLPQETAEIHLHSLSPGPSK

c1cnc2[nH]cc(-c3ccnc(NCC4CCCCC4)n3)c2c1
active: Ki [2] 7.94 nM | Ki [3] 15.8 nM | Ki [4] 79.4 nM | Ki [5] 316 nM | Ki [6] 126 nM | Ki [7] 200 nM | Ki [8] 20 nM
inactive: Ki [1] > 10000 nM

C[C@H](CN1CCC2(CC1)C(=O)NCN2c1ccccc1)NC(=O)c1cc2cc(F)ccc2[nH]1
active: IC50 (Phospholipase D1) 2 nM | IC50 (Phospholipase D2) 23 nM

COc1ccc(-c2cc(O)cc(O)c2)cc1
active: EC50 [9] 3800 nM | EC50 (H4) 4120 nM | IC50 (Caspase-3) 30900 nM | IC50 [10] 12300 nM | IC50 [11] 41100 nM | IC50 [12] 48000 nM

COc1ccc(COC(=O)c2c(C)nn(-c3ccccc3)c2Cl)cc1
active: IC50 (Caspase-3) 40200 nM | IC50 [10] 19400 nM | IC50 [11] 73300 nM | IC50 [12] 98100 nM

CN(CCN1CCC(n2c(=O)[nH]c3ccccc32)CC1)C(=O)c1ccc2ccccc2c1
active: IC50 (Phospholipase D1) 2060 nM | IC50 (Phospholipase D2) 20000 nM

C[C@@H](CN1CCC2(CC1)C(=O)NCN2c1ccccc1)NC(=O)[C@@H]1C[C@H]1c1ccccc1
active: IC50 (Phospholipase D1) 2560 nM | IC50 (Phospholipase D2) 20000 nM

CCCCS(=O)(=O)Nc1ccc2c(c1)C(=NO)c1ccccc1-2
active: Ki (Aurora kinase A) 1260 nM | Ki [13] 1580 nM | Ki (Aurora kinase B) 10 nM
